Experiment [1] addresses T1, GDP-loaded KRAS4b (amino acids 1-169) G12C/C118S protein (Homo sapiens, UniProt P01116, C118S/G12C).
T1 construct: KRAS4b (amino acids 1-169) G12C/C118S protein; made in house
The experiment in a line: Covalent cysteine 12 modification by MALDI-TOF MS, GDP-loaded KRAS G12C. The class given is binding. Conditions: 15 minutes reaction time point. An outline of the steps: (§1)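 KRAS4b 1-169 G12C/C118S loaded with GDP, GppNHp or GTP was used at 1 μM in 20 mM HEPES, 150 mM NaCl, 1 mM MgCl2, pH 7.3, and incubated with compound (5 mM DMSO stock) at room temperature in the dark. % modification at 15 min is adduct peak height over total protein peak heights by linear-mode MALDI-TOF.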

In experiment [2] the target is T2, Avi-KRAS G12C (1-169) GppNHp/RAF1 RBD-3×FLAG (52-151) (Homo sapiens, UniProt P01116, G12C).
T2 construct: Avi-KRAS G12C (1-169) GppNHp/RAF1 RBD-3×FLAG (52-151)
The experiment in a line: Raf1 RBD-KRAS G12C-GppNHp disruption (protein:protein interaction HTRF assay). Type of experiment: biochemical. An outline of the steps:
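HTRF measuring disruption of 50 nM Avi-KRAS G12C (1-169) loaded with GppNHp binding RAF1 RBD-3×FLAG (52-151), in pH 7.5 Tris buffer with 5 mM MgCl2, 0.1% BSA, 10% DMSO. KRAS preincubated with compound 1 h, then RBD 1 h, then detection reagents 1 h, all at room temperature. Compound titration 30-0.02 μM; activity expressed as percent of DMSO control.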
For orientation: In TR-FRET formats the signal depends on donor and acceptor labels being close together.

Experiment [3] addresses T3, GppNHp-loaded KRAS4b (amino acids 1-169) G12C/C118S protein (Homo sapiens, UniProt P01116, C118S/G12C).
T3 construct: KRAS4b (amino acids 1-169) G12C/C118S protein; made in house
The experiment in a line: Covalent cysteine 12 modification by MALDI-TOF MS, GppNHp-loaded KRAS G12C. The class given is binding. The note with it: 15 minutes reaction time point. In a few lines:
as §1

For experiment [4], the system named is pERK in NCI-H358 cells. The experiment in a line: Cell-based pERK HTRF assay. Conditions: 30 min incubation, read-out: pERK in NCI-H358 cell inhibition IC50. An outline of the steps:
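Cells seeded at 4×10^4/well in RPMI with 10% FBS, then next day treated for 30 min with a 9-point, 3-fold series from 75 μM top concentration at 0.25% DMSO. Lysates were read for pERK by HTRF (d2/Eu cryptate antibodies) after 4–24 h at room temperature, emission at 615 nm.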

Broadly, the pIC50 is the IC50 on a negative log10 scale, so that one unit is a factor of ten.

pIC50: −log10 of the molar value. Where two headings read alike, the source gives them in different places.

With `C=CC(=O)N1CC[C@@H](Oc2nc(OC[C@@H]3C[C@@H](F)CN3C)nc3c(F)c(-c4ccc(F)c5sc(N)nc45)c(C(F)(F)F)cc23)C1` (atropisomer, axis not shown) [Compound 19], the “GDP-KRAS G12C percent of modification” value in experiment [1] was “D (percent of modification <10%)”. Besides, the pIC50 in experiment [2] is 4.70 to 5.30; in experiment [4] it was less than 6.00. Further, in experiment [3], the “GppNHp-KRAS G12C percent of modification” value was “D (percent of modification <10%)”.

With `C=CC(=O)N1CC(Oc2nc(OC[C@@]34CCCN3C[C@H](F)C4)nc3c(F)c(-c4ccc(F)c5sc(N)nc45)c(C(F)(F)F)cc23)C1` [Compound 7, 1-(3-((7-(2-amino-7-fluorobenzo[d]thiazol-4-yl)-8-fluoro-2-(((2R,7aS)-2-fluorotetrahydro-1H-pyrrolizin-7a (5H)-yl)methoxy)-6-(trifluoromethyl)quinazolin-4-yl)oxy)azetidin-1-yl) prop-2-en-1-one], the “GDP-KRAS G12C percent of modification” value in experiment [1] is “D (percent of modification <10%)”. Further, the negative-log IC50 (pIC50) in experiment [2] was less than 4.70; in experiment [4] (Homo sapiens, NCI-H358, 0.5 h) it was less than 6.00. In addition, in experiment [3], the “GppNHp-KRAS G12C percent of modification” value was “D (percent of modification <10%)”.

`C=CC(=O)N1C[C@H](Oc2nc(OC[C@@]34CCCN3C[C@H](F)C4)nc3c(F)c(-c4ccc(F)c5sc(N)nc45)c(C(F)(F)F)cc23)C[C@@H]1C` (atropisomer, axis not shown) [Compound 33]: the “GDP-KRAS G12C percent of modification” value in experiment [1] is given as “D (percent of modification <10%)”. Further, the pIC50 in experiment [2] is 4.70 to 5.30; in experiment [4] it was less than 6.00. Further, the “GppNHp-KRAS G12C percent of modification” value in experiment [3] was “D (percent of modification <10%)”.

On to `C=CC(=O)N1CC(Oc2nc(OC[C@@H]3CCCN3C)nc3c(F)c(-c4ccc(F)c5sc(N)nc45)c(C(F)(F)F)cc23)C1` [Compound 22], for which the “GDP-KRAS G12C percent of modification” value in experiment [1] is recorded as “A (percent of modification ≥70%)”. The pIC50 is not below 6.30 in experiment [2] and not below 7.00 in experiment [4] (Homo sapiens, NCI-H358, 0.5 h). The “GppNHp-KRAS G12C percent of modification” value in experiment [3] is “C (10%≤modification <50%)”.

`C=CC(=O)N1CC[C@@H](Oc2nc(OC[C@@H]3CC(C)(C)CN3C)nc3c(F)c(-c4ccc(F)c5sc(N)nc45)c(C(F)(F)F)cc23)C1` (atropisomer, axis not shown) [Compound 17]: the “GDP-KRAS G12C percent of modification” value in experiment [1] is recorded as “D (percent of modification <10%)”. The figures for the negative-log IC50 (pIC50) in experiment [2] and in experiment [4] were less than 4.70 and less than 6.00, respectively. For the same compound, the “GppNHp-KRAS G12C percent of modification” value in experiment [3] is listed as “D (percent of modification <10%)”.

As to `C=CC(=O)N1CC[C@@H](Oc2nc(OC[C@@H]3CC4(CC4)CN3C)nc3c(F)c(-c4ccc(F)c5sc(N)nc45)c(C(F)(F)F)cc23)C1` (atropisomer, axis not shown) [Compound 24], the “GDP-KRAS G12C percent of modification” value in experiment [1] is given as “A (percent of modification ≥70%)”. The results for the negative-log IC50 (pIC50) in experiment [2] and in experiment [4] were not below 6.30 and not below 7.00, respectively. The “GppNHp-KRAS G12C percent of modification” value in experiment [3] is reported as “B (50≤percent of modification <70%)”.

Consider `CC#CC(=O)N1CC(Oc2nc(OC[C@@H]3CCCN3C)nc3c(F)c(-c4ccc(F)c5sc(N)nc45)c(Cl)cc23)C1` [Compound 2], for which the “GDP-KRAS G12C percent of modification” value in experiment [1] is recorded as “B (50≤percent of modification <70%)”. Besides, the pIC50 in experiment [2] is 5.30 to 6.30; in experiment [4] (Homo sapiens, NCI-H358, 0.5 h) it was 6.00 to 7.00. Further, in experiment [3], the “GppNHp-KRAS G12C percent of modification” value is recorded as “D (percent of modification <10%)”.

Take `C=CC(=O)N1C[C@H](Oc2nc(OC[C@@]34CCCN3C[C@H](F)C4)nc3c(F)c(-c4ccc(F)c5sc(N)nc45)c(C(F)(F)F)cc23)C[C@@H]1C` (atropisomer, axis not shown) [Compound 32]: in experiment [1], the “GDP-KRAS G12C percent of modification” value is reported as “A (percent of modification ≥70%)”. Moreover, the negative-log IC50 (pIC50) in experiment [2] was not below 6.30; in experiment [4], not below 7.00. In addition, the “GppNHp-KRAS G12C percent of modification” value in experiment [3] is listed as “C (10%≤modification <50%)”.

On to `C=CC(=O)N1CC[C@H](Oc2nc(OC[C@@]34CCCN3C[C@H](F)C4)nc3c(F)c(-c4ccc(F)c5sc(N)nc45)c(C(F)(F)F)cc23)C1` (atropisomer, axis not shown) [Compound 9], for which the “GDP-KRAS G12C percent of modification” value in experiment [1] was “C (10%≤modification <50%)”. Moreover, the pIC50 in experiment [2] is 5.30 to 6.30; in experiment [4] it was 6.00 to 7.00. The “GppNHp-KRAS G12C percent of modification” value in experiment [3] is listed as “D (percent of modification <10%)”.

For `C=CC(=O)N1CC[C@@H](Oc2nc(OC[C@@]34CCCN3C[C@H](F)C4)nc3c(F)c(-c4ccc(F)c5oc(N)nc45)c(C(F)(F)F)cc23)C1` [Compound 36, 1-((3R)-3-((7-(2-amino-7-fluorobenzo[d]oxazol-4-yl)-8-fluoro-2-(((2R,7aS)-2-fluorotetrahydro-1H-pyrrolizin-7a (5H)-yl)methoxy)-6-(trifluoromethyl)quinazolin-4-yl)oxy)pyrrolidin-1-yl) prop-2-en-1-one], the “GDP-KRAS G12C percent of modification” value in experiment [1] is on record as “C (10%≤modification <50%)”. Further, the pIC50 is not below 6.30 in experiment [2] and not below 7.00 in experiment [4] (Homo sapiens, NCI-H358, 0.5 h). Besides, the “GppNHp-KRAS G12C percent of modification” value in experiment [3] is recorded as “C (10%≤modification <50%)”.

Regarding `C=CC(=O)N1CC[C@@H](Oc2nc(OC[C@@]34CCCN3C[C@H](F)C4)nc3c(F)c(-c4ccc(F)c5sc(N)nc45)c(Cl)cc23)C1` (atropisomer, axis not shown) [Compound 3], the “GDP-KRAS G12C percent of modification” value in experiment [1] is given as “A (percent of modification ≥70%)”. Moreover, the negative-log IC50 (pIC50) is not below 6.30 in experiment [2] and not below 7.00 in experiment [4] (Homo sapiens, NCI-H358, 0.5 h). Further, the “GppNHp-KRAS G12C percent of modification” value in experiment [3] is recorded as “A (percent of modification ≥70%)”.

In the case of `C=CC(=O)N1C[C@H](Oc2nc(OC[C@@]34CCCN3C[C@H](F)C4)nc3c(F)c(-c4ccc(F)c5sc(N)nc45)c(C(F)(F)F)cc23)C[C@H]1C` (atropisomer, axis not shown) [Compound 37], the “GDP-KRAS G12C percent of modification” value in experiment [1] is on record as “A (percent of modification ≥70%)”. In addition, the negative-log IC50 (pIC50) in experiment [2] is not below 6.30; in experiment [4] (Homo sapiens, NCI-H358, 0.5 h), not below 7.00. The “GppNHp-KRAS G12C percent of modification” value in experiment [3] was “A (percent of modification ≥70%)”.

As to `C=CC(=O)N1CC[C@H](Oc2nc(OC[C@@]34CCCN3C[C@H](F)C4)nc3c(F)c(-c4ccc(F)c5sc(N)nc45)c(Cl)cc23)C1` (atropisomer, axis not shown) [Compound 8], in experiment [1], the “GDP-KRAS G12C percent of modification” value is reported as “C (10%≤modification <50%)”. Moreover, the pIC50 in experiment [2] was 5.30 to 6.30; in experiment [4], less than 6.00. Also, in experiment [3], the “GppNHp-KRAS G12C percent of modification” value was “D (percent of modification <10%)”.

As for `C=CC(=O)N1CC[C@@H](Oc2nc(OC[C@@H]3CC(C)(C)CN3C)nc3c(F)c(-c4ccc(F)c5sc(N)nc45)c(C(F)(F)F)cc23)C1` (atropisomer, axis not shown) [Compound 16], the “GDP-KRAS G12C percent of modification” value in experiment [1] is “A (percent of modification ≥70%)”. Besides, the pIC50 is 5.30 to 6.30 in experiment [2] and 6.00 to 7.00 in experiment [4]. In experiment [3], the “GppNHp-KRAS G12C percent of modification” value is “C (10%≤modification <50%)”.

In the case of `C=CC(=O)N1CCC[C@@H](Oc2nc(OC[C@@H]3C[C@@H](F)CN3C)nc3c(F)c(-c4ccc(F)c5sc(N)nc45)c(C(F)(F)F)cc23)C1` (atropisomer, axis not shown) [Compound 20], the “GDP-KRAS G12C percent of modification” value in experiment [1] is listed as “B (50≤percent of modification <70%)”. Further, the pIC50 in experiment [2] is 4.70 to 5.30; in experiment [4] (Homo sapiens, NCI-H358, 0.5 h), less than 6.00. Also, the “GppNHp-KRAS G12C percent of modification” value in experiment [3] is on record as “D (percent of modification <10%)”.

As for `C=CC(=O)N1CC(Oc2nc(OC[C@@]34CCCN3C[C@H](F)C4)nc3c(F)c(-c4ccc(F)c5sc(N)nc45)c(C(F)(F)F)cc23)[C@@H](C)C1` (stereo partly shown) [Compound 35], the “GDP-KRAS G12C percent of modification” value in experiment [1] is “C (10%≤modification <50%)”. For the same compound, the pIC50 is 5.30 to 6.30 in experiment [2] and 6.00 to 7.00 in experiment [4]. In addition, in experiment [3], the “GppNHp-KRAS G12C percent of modification” value is given as “D (percent of modification <10%)”.
